# In paper PMC12373846, “Hemoglobin as a pseudoperoxidase and drug target for oxidative stress-related diseases” (Signal Transduction and Targeted Therapy, 2025):
# Where “and” joins values, the source holds several entries; their conditions need not be identical. Equal entries are not always repeated. Where two headings read alike, the source gives them in different places.
# Assays:
# Test in all cases: SafetyScreen87 panel
# [1] = system: Na+ channel (site 2) (antagonist radioligand); conditions: 1.0E-06 M, read-out: % Inhibition of Control Specific Binding (1st, 2nd, Mean)
# Protocol: (§1) The possibility of KDS12025 on kinase off-target, the KINOMEscan panel of scanEDGE assay was conducted in DiscoverX (CA, USA) using a site-directed competition binding with the test compounds. The assay results are given in Supplementary Table 4 and experimental information is available on the DiscoverX web page (www.discoverx.com). Moreover, the Delta SafetyScreen87 panel assay was conducted in Eurofins Discovery (Cerep, France). The assay results are given in Supplementary Table 5 and experimental information is available on the DiscoverX web page (https://www.eurofinsdiscoveryservices.com).
# [2] = molecular target: T1, PPARgamma (h) (agonist radioligand) (Homo sapiens, UniProt P37231); conditions: read-out: % Inhibition of Control Specific Binding (1st, 2nd, Mean); 1.0E-06 M
# T1 construct: purchased DiscoverX KINOMEscan scanEDGE; Eurofins Cerep SafetyScreen87
# Protocol: as §1
# [3] = system: glycine (strychnine-insensitive) (antagonist radioligand); conditions: 1.0E-06 M; read-out: % Inhibition of Control Specific Binding (1st, 2nd, Mean)
# Protocol: as §1
# [4] = system: Ca2+ channel (L, verapamil site) (phenylalkylamine) (antagonist radioligand); conditions: 1.0E-06 M, read-out: % Inhibition of Control Specific Binding (1st, 2nd, Mean)
# Protocol: as §1
# [5] = molecular target: T2, N muscle-type (h) (antagonist radioligand) (Homo sapiens, UniProt P02708+P07510+Q07001); conditions: 1.0E-06 M; mean; read-out: % Inhibition of Control Specific Binding (1st, 2nd, Mean)
# T2 construct: purchased DiscoverX KINOMEscan scanEDGE; Eurofins Cerep SafetyScreen87
# Protocol: as §1
# [6] = molecular target: T3, mu (MOP) (h) (agonist radioligand) (Homo sapiens, UniProt P35372); conditions: 1.0E-06 M; mean; read-out: % Inhibition of Control Specific Binding (1st, 2nd, Mean)
# T3 construct: purchased DiscoverX KINOMEscan scanEDGE; Eurofins Cerep SafetyScreen87
# Protocol: as §1
# [7] = molecular target: T4, Ca2+ channel (N) (antagonist radioligand) (Rattus norvegicus, UniProt Q02294)
# T4 construct: Eurofins Discovery (Cerep, France) SafetyScreen87 panel
# Protocol: as §1
# [8] = molecular target: T5, RARalpha (h) (agonist radioligand) (Homo sapiens, UniProt P10276); conditions: 1.0E-06 M; read-out: % Inhibition of Control Specific Binding (1st, 2nd, Mean)
# T5 construct: purchased DiscoverX KINOMEscan scanEDGE; Eurofins Cerep SafetyScreen87
# Protocol: as §1
# [9] = molecular target: T6, H2 (h) (antagonist radioligand) (Homo sapiens, UniProt P25021); conditions: read-out: % Inhibition of Control Specific Binding (1st, 2nd, Mean); 1.0E-06 M
# T6 construct: purchased DiscoverX KINOMEscan scanEDGE; Eurofins Cerep SafetyScreen87
# Protocol: as §1
# [10] = molecular target: T7, beta 1 (h) (agonist radioligand) (Homo sapiens, UniProt P08588); conditions: 1.0E-06 M, read-out: % Inhibition of Control Specific Binding (1st, 2nd, Mean)
# T7 construct: purchased DiscoverX KINOMEscan scanEDGE; Eurofins Cerep SafetyScreen87
# Protocol: as §1
# [11] = molecular target: T8, delta (DOP) (h) (agonist radioligand) (Homo sapiens, UniProt P41143); conditions: 1.0E-06 M; mean; read-out: % Inhibition of Control Specific Binding (1st, 2nd, Mean)
# T8 construct: purchased DiscoverX KINOMEscan scanEDGE; Eurofins Cerep SafetyScreen87
# Protocol: as §1
# [12] = molecular target: T9, CXCR2 (IL-8B) (h) (agonist radioligand) (Homo sapiens, UniProt P25025)
# T9 construct: purchased DiscoverX KINOMEscan scanEDGE; Eurofins Cerep SafetyScreen87
# Protocol: as §1
# [13] = molecular target: T10, ETA (h) (agonist radioligand) (Homo sapiens, UniProt P25101)
# T10 construct: purchased DiscoverX KINOMEscan scanEDGE; Eurofins Cerep SafetyScreen87
# Protocol: as §1
# [14] = system: Cl- channel (GABA-gated) (TBOB site) (antagonist radioligand); conditions: 1.0E-06 M, read-out: % Inhibition of Control Specific Binding (1st, 2nd, Mean)
# Protocol: as §1
# [15] = molecular target: T11, GABAB(1b) (h) (antagonist radioligand) (Homo sapiens, UniProt Q9UBS5); conditions: 1.0E-06 M, read-out: % Inhibition of Control Specific Binding (1st, 2nd, Mean)
# T11 construct: purchased DiscoverX KINOMEscan scanEDGE; Eurofins Cerep SafetyScreen87
# Protocol: as §1
# [16] = system: glycine (strychnine-sensitive) (antagonist radioligand); conditions: 1.0E-06 M, read-out: % Inhibition of Control Specific Binding (1st, 2nd, Mean)
# Protocol: as §1
# [17] = molecular target: T12, AT1 (h) (antagonist radioligand) (Homo sapiens, UniProt P30556); conditions: 1.0E-06 M, read-out: % Inhibition of Control Specific Binding (1st, 2nd, Mean)
# T12 construct: purchased DiscoverX KINOMEscan scanEDGE; Eurofins Cerep SafetyScreen87
# Protocol: as §1
# [18] = molecular target: T13, 5-HT1A (h) (agonist radioligand) (Homo sapiens, UniProt P08908); conditions: 1.0E-06 M; mean; read-out: % Inhibition of Control Specific Binding (1st, 2nd, Mean)
# T13 construct: purchased DiscoverX KINOMEscan scanEDGE; Eurofins Cerep SafetyScreen87
# Protocol: as §1
# [19] = molecular target: T14, AR(h) (agonist radioligand) (Homo sapiens, UniProt P10275, T878A); conditions: 1.0E-06 M; mean; read-out: % Inhibition of Control Specific Binding (1st, 2nd, Mean)
# T14 construct: purchased DiscoverX KINOMEscan scanEDGE; Eurofins Cerep SafetyScreen87
# Protocol: as §1
# [20] = molecular target: T15, 5-HT2C (h) (antagonist radioligand) (Homo sapiens, UniProt P28335); conditions: 1.0E-06 M; mean; read-out: % Inhibition of Control Specific Binding (1st, 2nd, Mean)
# T15 construct: purchased DiscoverX KINOMEscan scanEDGE; Eurofins Cerep SafetyScreen87
# Protocol: as §1
# [21] = molecular target: T16, hERG potassium channel (Homo sapiens, UniProt Q12809); conditions: human, probe [3H] Dofetilide, 1.0E-06 M; read-out: % Inhibition of Control Specific Binding (1st, 2nd, Mean)
# T16 construct: Eurofins Discovery (Cerep, France) SafetyScreen87 panel
# Protocol: as §1
# [22] = molecular target: T17, A1 (h) (antagonist radioligand) (Homo sapiens, UniProt P30542); conditions: 1.0E-06 M, read-out: % Inhibition of Control Specific Binding (1st, 2nd, Mean)
# T17 construct: purchased DiscoverX KINOMEscan scanEDGE; Eurofins Cerep SafetyScreen87
# Protocol: as §1
# [23] = molecular target: T18, Y1 (h) (agonist radioligand) (Homo sapiens, UniProt P25929); conditions: read-out: % Inhibition of Control Specific Binding (1st, 2nd, Mean); 1.0E-06 M
# T18 construct: purchased DiscoverX KINOMEscan scanEDGE; Eurofins Cerep SafetyScreen87
# Protocol: as §1
# [24] = molecular target: T19, 5-HT2A (h) (agonist radioligand) (Homo sapiens, UniProt P28223); conditions: 1.0E-06 M; mean; read-out: % Inhibition of Control Specific Binding (1st, 2nd, Mean)
# T19 construct: purchased DiscoverX KINOMEscan scanEDGE; Eurofins Cerep SafetyScreen87
# Protocol: as §1
# [25] = system: PCP (antagonist radioligand); conditions: 1.0E-06 M; mean; read-out: % Inhibition of Control Specific Binding (1st, 2nd, Mean)
# Protocol: as §1
# [26] = system: AMPA (agonist radioligand); conditions: 1.0E-06 M, read-out: % Inhibition of Control Specific Binding (1st, 2nd, Mean)
# Protocol: as §1
# [27] = system: Ca2+ channel (L, dihydropyridine site) (antagonist radioligand); conditions: 1.0E-06 M, read-out: % Inhibition of Control Specific Binding (1st, 2nd, Mean)
# Protocol: as §1
# [28] = system: GABA transporter (antagonist radioligand); conditions: 1.0E-06 M, read-out: % Inhibition of Control Specific Binding (1st, 2nd, Mean)
# Protocol: as §1
# [29] = molecular target: T20, GR (h) (agonist radioligand) (Homo sapiens, UniProt P04150); conditions: 1.0E-06 M; mean; read-out: % Inhibition of Control Specific Binding (1st, 2nd, Mean)
# T20 construct: purchased DiscoverX KINOMEscan scanEDGE; Eurofins Cerep SafetyScreen87
# Protocol: as §1
# [30] = molecular target: T21, kappa (h) (KOP) (agonist radioligand) (Homo sapiens, UniProt P41145); conditions: 1.0E-06 M; mean; read-out: % Inhibition of Control Specific Binding (1st, 2nd, Mean)
# T21 construct: purchased DiscoverX KINOMEscan scanEDGE; Eurofins Cerep SafetyScreen87
# Protocol: as §1
# [31] = system: Ca2+ channel (L, diltiazem site) (benzothiazepines) (antagonist radioligand); conditions: 1.0E-06 M, read-out: % Inhibition of Control Specific Binding (1st, 2nd, Mean)
# Protocol: as §1
# [32] = 1.0E-06 M; read-out: % Inhibition of Control Specific Binding (1st, 2nd, Mean)
# [33] = read-out: % Inhibition of Control Specific Binding (1st, 2nd, Mean); 1.0E-06 M
# T7 sequence (P08588 whole entry): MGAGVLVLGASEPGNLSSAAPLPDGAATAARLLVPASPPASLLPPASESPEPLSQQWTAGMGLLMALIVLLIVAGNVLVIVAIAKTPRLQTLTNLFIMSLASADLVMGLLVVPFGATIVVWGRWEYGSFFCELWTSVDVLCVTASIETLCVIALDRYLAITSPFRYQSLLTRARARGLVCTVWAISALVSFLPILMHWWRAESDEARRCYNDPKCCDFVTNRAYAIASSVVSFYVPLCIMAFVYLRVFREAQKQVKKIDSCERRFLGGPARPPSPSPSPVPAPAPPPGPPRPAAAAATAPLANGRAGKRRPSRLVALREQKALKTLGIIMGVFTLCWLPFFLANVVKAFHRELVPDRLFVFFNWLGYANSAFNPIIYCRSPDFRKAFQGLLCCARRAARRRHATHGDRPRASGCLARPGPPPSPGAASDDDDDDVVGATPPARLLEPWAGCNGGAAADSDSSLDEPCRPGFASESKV
# T5 sequence (P10276 whole entry): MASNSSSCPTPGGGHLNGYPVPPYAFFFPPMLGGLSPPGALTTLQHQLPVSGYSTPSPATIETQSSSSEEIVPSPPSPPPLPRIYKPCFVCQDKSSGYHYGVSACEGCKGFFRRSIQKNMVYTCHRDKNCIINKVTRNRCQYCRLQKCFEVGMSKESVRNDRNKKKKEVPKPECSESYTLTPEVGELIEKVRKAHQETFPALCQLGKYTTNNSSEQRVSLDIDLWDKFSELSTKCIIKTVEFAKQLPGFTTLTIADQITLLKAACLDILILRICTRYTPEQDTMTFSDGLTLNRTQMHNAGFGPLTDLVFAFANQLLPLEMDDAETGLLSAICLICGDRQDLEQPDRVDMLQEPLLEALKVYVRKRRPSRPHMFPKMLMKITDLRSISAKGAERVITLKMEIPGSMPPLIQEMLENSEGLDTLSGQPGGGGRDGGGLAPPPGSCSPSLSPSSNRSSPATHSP
# T12 sequence (P30556 whole entry): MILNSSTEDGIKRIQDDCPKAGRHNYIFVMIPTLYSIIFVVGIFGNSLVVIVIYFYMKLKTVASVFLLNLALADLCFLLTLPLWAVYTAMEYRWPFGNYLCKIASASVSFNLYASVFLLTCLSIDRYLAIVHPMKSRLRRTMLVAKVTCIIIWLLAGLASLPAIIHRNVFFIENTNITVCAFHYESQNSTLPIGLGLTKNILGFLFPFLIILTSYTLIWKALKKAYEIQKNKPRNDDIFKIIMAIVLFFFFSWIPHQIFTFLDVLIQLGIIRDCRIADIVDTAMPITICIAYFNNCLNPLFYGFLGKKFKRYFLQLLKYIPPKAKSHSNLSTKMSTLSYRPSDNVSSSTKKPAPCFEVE
# T17 sequence (P30542 whole entry): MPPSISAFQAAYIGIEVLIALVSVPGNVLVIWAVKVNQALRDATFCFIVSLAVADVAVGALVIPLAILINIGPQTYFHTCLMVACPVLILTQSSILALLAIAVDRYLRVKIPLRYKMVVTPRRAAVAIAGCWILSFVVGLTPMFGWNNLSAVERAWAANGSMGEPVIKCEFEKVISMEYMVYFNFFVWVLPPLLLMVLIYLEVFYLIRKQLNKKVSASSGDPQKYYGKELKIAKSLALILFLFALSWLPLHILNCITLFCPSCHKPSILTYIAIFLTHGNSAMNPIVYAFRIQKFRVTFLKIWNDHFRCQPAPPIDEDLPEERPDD
# T11 sequence (Q9UBS5 1-844 isoform Q9UBS5-2): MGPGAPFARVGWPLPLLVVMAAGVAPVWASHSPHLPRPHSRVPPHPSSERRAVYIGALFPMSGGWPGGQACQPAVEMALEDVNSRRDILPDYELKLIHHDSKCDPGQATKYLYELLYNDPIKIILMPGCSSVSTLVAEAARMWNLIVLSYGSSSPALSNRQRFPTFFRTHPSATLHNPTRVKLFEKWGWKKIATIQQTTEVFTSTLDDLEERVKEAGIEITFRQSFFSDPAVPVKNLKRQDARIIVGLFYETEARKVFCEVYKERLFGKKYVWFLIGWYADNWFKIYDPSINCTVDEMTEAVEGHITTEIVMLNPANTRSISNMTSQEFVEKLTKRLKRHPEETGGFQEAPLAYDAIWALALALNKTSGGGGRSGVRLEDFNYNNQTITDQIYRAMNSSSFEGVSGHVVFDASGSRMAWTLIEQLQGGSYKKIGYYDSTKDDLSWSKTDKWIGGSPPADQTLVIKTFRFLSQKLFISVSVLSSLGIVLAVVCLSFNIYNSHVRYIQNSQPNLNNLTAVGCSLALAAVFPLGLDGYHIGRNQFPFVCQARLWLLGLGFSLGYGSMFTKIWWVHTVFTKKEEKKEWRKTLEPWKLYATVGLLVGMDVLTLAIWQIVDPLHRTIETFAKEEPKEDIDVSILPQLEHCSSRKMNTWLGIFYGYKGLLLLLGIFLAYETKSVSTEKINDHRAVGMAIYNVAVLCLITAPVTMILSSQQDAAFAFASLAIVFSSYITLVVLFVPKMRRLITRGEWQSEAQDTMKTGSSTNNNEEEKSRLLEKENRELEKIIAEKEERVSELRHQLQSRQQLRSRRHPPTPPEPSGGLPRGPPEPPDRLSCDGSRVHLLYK
# T10 sequence (P25101 21-427): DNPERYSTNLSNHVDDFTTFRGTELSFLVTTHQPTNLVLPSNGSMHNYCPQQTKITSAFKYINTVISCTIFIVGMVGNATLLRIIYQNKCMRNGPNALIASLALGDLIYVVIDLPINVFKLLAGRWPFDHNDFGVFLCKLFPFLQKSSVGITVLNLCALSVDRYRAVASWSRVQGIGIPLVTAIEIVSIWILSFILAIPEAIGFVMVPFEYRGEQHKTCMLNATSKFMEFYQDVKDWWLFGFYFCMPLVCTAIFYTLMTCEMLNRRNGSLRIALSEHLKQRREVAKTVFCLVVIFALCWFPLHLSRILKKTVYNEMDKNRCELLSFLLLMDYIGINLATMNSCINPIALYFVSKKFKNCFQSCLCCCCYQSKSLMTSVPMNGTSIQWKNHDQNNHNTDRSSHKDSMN
# T9 sequence (P25025 whole entry): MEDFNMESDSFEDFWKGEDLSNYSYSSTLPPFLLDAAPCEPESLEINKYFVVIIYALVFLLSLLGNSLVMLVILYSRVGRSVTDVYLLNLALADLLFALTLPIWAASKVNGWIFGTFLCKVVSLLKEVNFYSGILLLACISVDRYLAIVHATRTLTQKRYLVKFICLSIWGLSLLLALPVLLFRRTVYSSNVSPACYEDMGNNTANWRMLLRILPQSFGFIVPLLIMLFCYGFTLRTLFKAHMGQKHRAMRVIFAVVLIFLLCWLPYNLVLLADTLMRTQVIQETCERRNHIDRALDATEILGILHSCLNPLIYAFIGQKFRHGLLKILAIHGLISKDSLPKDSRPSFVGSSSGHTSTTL
# T6 sequence (P25021 whole entry): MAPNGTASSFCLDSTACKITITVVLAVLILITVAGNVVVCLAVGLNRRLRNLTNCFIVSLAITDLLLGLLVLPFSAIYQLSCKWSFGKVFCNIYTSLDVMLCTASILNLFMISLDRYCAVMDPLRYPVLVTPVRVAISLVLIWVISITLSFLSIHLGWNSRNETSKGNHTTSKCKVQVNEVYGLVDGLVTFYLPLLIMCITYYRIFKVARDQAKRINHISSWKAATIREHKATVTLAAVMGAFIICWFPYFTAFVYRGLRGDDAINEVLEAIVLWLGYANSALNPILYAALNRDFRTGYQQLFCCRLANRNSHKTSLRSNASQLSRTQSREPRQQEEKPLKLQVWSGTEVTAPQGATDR
# T16 sequence (Q12809 whole entry): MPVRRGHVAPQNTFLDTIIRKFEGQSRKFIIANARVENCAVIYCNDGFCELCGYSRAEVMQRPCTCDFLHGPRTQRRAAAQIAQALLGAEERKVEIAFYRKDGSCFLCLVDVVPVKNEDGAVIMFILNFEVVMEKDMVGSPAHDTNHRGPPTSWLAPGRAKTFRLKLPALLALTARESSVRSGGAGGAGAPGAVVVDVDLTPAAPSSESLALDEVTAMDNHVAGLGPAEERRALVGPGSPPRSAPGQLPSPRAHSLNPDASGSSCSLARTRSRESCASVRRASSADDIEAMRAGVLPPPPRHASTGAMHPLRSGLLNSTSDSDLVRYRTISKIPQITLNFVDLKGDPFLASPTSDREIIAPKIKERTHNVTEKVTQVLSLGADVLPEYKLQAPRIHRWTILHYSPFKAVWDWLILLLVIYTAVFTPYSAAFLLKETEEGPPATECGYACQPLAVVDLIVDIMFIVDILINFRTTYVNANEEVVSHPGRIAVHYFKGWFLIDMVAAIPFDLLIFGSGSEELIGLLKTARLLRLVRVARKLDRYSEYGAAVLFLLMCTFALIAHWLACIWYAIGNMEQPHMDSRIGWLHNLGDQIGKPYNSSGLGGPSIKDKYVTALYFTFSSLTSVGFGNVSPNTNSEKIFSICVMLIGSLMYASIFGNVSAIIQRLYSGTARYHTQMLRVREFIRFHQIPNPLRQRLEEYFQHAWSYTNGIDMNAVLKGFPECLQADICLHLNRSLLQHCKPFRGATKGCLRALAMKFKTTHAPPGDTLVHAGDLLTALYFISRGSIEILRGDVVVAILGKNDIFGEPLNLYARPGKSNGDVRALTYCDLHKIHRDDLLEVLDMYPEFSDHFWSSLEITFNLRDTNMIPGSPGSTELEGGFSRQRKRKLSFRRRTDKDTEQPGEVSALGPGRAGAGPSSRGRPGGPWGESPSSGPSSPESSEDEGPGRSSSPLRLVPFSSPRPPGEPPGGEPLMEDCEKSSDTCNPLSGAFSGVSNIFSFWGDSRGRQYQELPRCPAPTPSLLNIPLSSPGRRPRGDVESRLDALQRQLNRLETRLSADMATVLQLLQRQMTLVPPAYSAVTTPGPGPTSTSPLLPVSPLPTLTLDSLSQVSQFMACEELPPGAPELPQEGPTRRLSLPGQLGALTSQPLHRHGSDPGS
compound,measurement,setting,value
"CNc1ccc(NCCc2ccccc2OC)cc1.Cl [KDS12025, N^1-(2-methoxyphenethyl)-N^4-methylbenzene-1,4-diamine hydrochloride salt]",activity,[1]; mean,74.5%
same,activity,[1],83.6% and 65.5%
same,activity,[2],94.7%
same,activity,[3],96.8% and 100%
same,activity,[4]; mean,98%
same,activity,[4],101% and 95.5%
same,activity,[5],74.3%
same,activity,[6],84.5%
same,activity,[7]; [32],118%
same,activity,[7]; [33],104%
same,activity,[8],105%
same,activity,[9],94.2%
same,activity,[10]; mean,90.5%
same,activity,[10],86.7% and 94.3%
same,activity,[11],79.7%
same,activity,[12]; [32],83.3%
same,activity,[12]; [33],91.8%
same,activity,[13]; [32],108%
same,activity,[13]; [33],90.8%
same,activity,[14]; mean,96.4%
same,activity,[14],104% and 89%
same,activity,[15]; mean,104%
same,activity,[15],106% and 101%
same,activity,[16]; mean,118%
same,activity,[16],117% and 118%
same,activity,[17]; mean,87.4%
same,activity,[17],82.3% and 92.5%
same,activity,[18],62.4%
same,activity,[19],90.9%
same,activity,[20],76.4%
same,activity at 1 µM,[21],70.3%
same,activity,[22]; mean,114%
same,activity,[22],115% and 114%
same,activity,[23],104%
same,activity,[24],81.8%
same,activity,[25],92%
same,activity,[26]; mean,100%
same,activity,[26],98% and 103%
same,activity,[27]; mean,129%
same,activity,[27],138% and 121%
same,activity,[28]; mean,96%
same,activity,[28],101% and 91.1%
same,activity,[29],104%
same,activity,[30],82.7%
same,activity,[31]; mean,84.9%
same,activity,[31],88.1% and 81.7%
